From patent US5296492A, “Certain chroman derivatives useful for treating symptoms caused by contraction of smooth muscles, circulatory diseases or epilepsy” (Nippon Kayaku Kabushiki Kaisha, priority 1991, dated 1994) come the findings set out here.

One data set concerns rat aorta. Description: Spasmolytic effect in isolated rat aorta. In kind it is cell-based, male SD rat. The note with it: 20 mM KCl contraction, 37° C., maximal inhibition with papaverine hydrochloride 10^-4 M = 100, mean value±standard error, n = 3, read-out: -log IC50 (spasmolytic effect on rat aorta contracted with 20 mM KCl) (converted). The method, then:
(§1) 1. Spasmolytic effect in isolated rat aorta and dog coronary artery
The thoracic aorta of male SD rat was isolated and cut into 3 mm wide ring preparations. Each preparation was mounted in a 10 ml organ bath filled with Krebs-Henseleit solution by applying a resting tension of 1.0 g. The nutrient solution was maintained at 37° C. and aerated with a 95% O2 /5% CO2 gas. The isometric tension of the preparation was measured with a FD pickup and recorded on a recorder.
(§2) After about one hour of equilibration time, a compound of this invention was cumulatively administered to the preparation contracted with 20 mM KCl, and its spasmolytic effect was examined. The spasmolytic action of the compound of this invention was expressed as percentage of inhibition, taking the maximal inhibition obtained with papavarine hydrochloride (10^-4 M) as 100. The IC50 value (50% inhibition) for the compound of this invention was determined from the concentration-response curve fitted by non-linear regressions with a personal computer, and its potency expressed in terms of -log IC50 was shown as [mean value±standard error].

The nature of data set [1]: Acute toxicity in mice (up and down method). Particulars: mouse, in vivo, iv. As to the method: Acute toxicity of the test drug was evaluated in mice, following intravenous administration. The LD50 of the test drug was determined using up and down method.
The next data set concerns guinea-pig trachea. Description: Bronchodilator effect in isolated tracheal smooth muscle (guinea-pig trachea, leukotriene D4 contraction). In kind it is cell-based, Hartley male guinea-pigs. The method, then:
2. Bronchodilator effect in isolated tracheal smooth muscle
Hartley male guinea-pigs (NISSEIKEN) were stunned by a blow to the head and their tracheas were removed. Each trachea was carefully made into 20 small pieces so as not to injure them, and five pieces of them were linked together with a yarn to prepare tracheal strip chain. The preparation was suspended in 15 ml of an organ bath filled with a modified Krebs-Henseleitsolution containing indomethacin (b 5×10^-6 M) by applying a tension of 0.5 g. The solution was maintained at 35° C. and aerated with a 95% O2 /5% CO2 gas. After an equilibration time of one hour, the experiment was carried out. The results were isometrically recorded on a Multipen Recorder (R-64VL, mfd. by Rika Denki Kogyo) through a transducer (TD-112S, mfd. by Nihon Kohden) and an input box (JD-112S, mfd. by Nihon Kohden).
Each preparation was made to attain the maximal contraction with carbachol (3×10^-6 and 10^-5 M) and washed. When it reached an equilibrium, it was exposed to L-cysteine as an aminopeptidase inhibitor (3×10^-3 M). After thirty minutes, a contractive reaction was made to take place with leukotriene D4 (3×10^-9 M). When the contraction had reached a constant value, a test drug (10^-8 to 3×10^-5 M) was cumulatively applied into the bath at a dose ratio of 3. Finally, the maximal relaxation of each preparation was confirmed with papaverine.
The relaxations given by each test drug at various concentrations were converted to percentages of relaxation, taking the maximal relaxation obtained with papaverine as 100. The maximal relaxation (%) of each test drug and -log of ED30 (M) which is the dose of each test drug giving a percentage of relaxation of 30% as determined by a linear regression method from percentages of relaxation at two different doses are shown below.

For another data set, the system named is dog coronary artery. Description: Spasmolytic effect in isolated dog coronary artery. In kind it is cell-based, mongrel dogs. Particulars: for spasmolytic effect on a contraction caused by 80 mM KCl (in words): potencies compared with 20 mM KCl; for IC50: Canis lupus familiaris, mean value±standard error. As to the method: as §1, §2
Ring preparations of coronary artery from mongrel dogs of either sex were prepared and isometric tension of the preparation was measured by the same method as above, except that the resting tension was adjusted to 1.5 g. For estimating the mechanism of action, the effect on the contraction caused by 80 mM KCl was also studied.

The mark [2] stands for this setting: 20 mM KCl contraction, n = 3 (n = 4 for Compound No. 81), read-out: -log IC50 (spasmolytic effect on dog coronary artery, 20 mM KCl) (converted).
Setting [3] is: 80 mM KCl contraction, n = 3, read-out: -log IC50 (spasmolytic effect on dog coronary artery, 80 mM KCl) (converted).

One may read the IC50 as the concentration that gives 50% inhibition. The term LD50 denotes the dose at which mortality reaches 50%. Higher therefore signals lower toxicity.

Read-outs that look alike come from different tables or passages of the source.

With `CC1(C)Oc2ccc(C#N)cc2[C@@H](n2ccc(CO[N+](=O)[O-])cc2=O)[C@@H]1O` (relative stereo) [Compound No. 2, trans-3-hydroxy-6-cyano-3,4-dihydro-2,2-dimethyl-4-(1,2-dihydro-2-oxo-4-nitroxymethyl-1-pyridinyl)-2H-benzo[b]pyran], in the data set with rat aorta, the IC50 was 51.3 nM. On the same count and under the same terms, under `CC(=O)O[C@H]1[C@H](n2ccc(CO[N+](=O)[O-])cc2=O)c2cc(C#N)ccc2OC1(C)C` (relative stereo) [Compound No. 44, trans-3-acetoxy-6-cyano-3,4-dihydro-2,2-dimethyl-4-(1,2-dihydro-2-oxo-4-nitroxymethyl-1-pyridinyl)-2H-benzo[b]pyran] stands 6610 nM.

As to `CC1(C)C=C(n2ccc(CO[N+](=O)[O-])cc2=O)c2cc(C#N)ccc2O1` [Compound No. 69, 6-cyano-2,2-dimethyl-4-(1,2-dihydro-2-oxo-4-nitroxymethyl-1-pyridinyl)-2H-benzo[b]pyran], the IC50 in the data set on rat aorta is 3.31 nM; in the data set on dog coronary artery (setting [2]), 8.71 nM; with dog coronary artery (setting [3]), 12600 nM. Further, the 50% lethal dose (LD50) in data set [1] was found to be 81.2 mg/kg. In addition, the EC30 with guinea-pig trachea (Cavia porcellus, leukotriene D4 (3×10^-9 M), dose giving 30% relaxation, papaverine maximal relaxation = 100, value is a negative log, read-out: Relaxing action on the contraction caused by leukotriene D4: -log[EX30 (M)] (converted)) was 2.24e-07 M. Also, the Emax with guinea-pig trachea (Cavia porcellus, leukotriene D4 (3×10^-9 M), test drug 10^-8 to 3×10^-5 M cumulatively, papaverine maximal relaxation = 100, read-out: Relaxing action on the contraction caused by leukotriene D4: Maximal relaxation %) came to 93.9%. In addition, the “relaxant effect on isolated guinea pig tracheal smooth muscle contracted by leukotriene D4 / bronchodilator activity (in words)” value with guinea-pig trachea (leukotriene D4) was “strong relaxant effect”. Also, the “spasmolytic effect on a contraction caused by 80 mM KCl (in words)” value (“spasmolytic effect” below) in the data set on dog coronary artery is on record as “also exhibited a spasmolytic effect on a contraction caused by 80 mM KCl, though their potencies are lower than those against the contraction caused by 20 mM KCl”. Consider `CC1(C)C=C(n2cc(CO[N+](=O)[O-])ccc2=O)c2cc(C#N)ccc2O1` [Compound No. 70, 6-cyano-2,2-dimethyl-4-(1,2-dihydro-2-oxo-5-nitroxymethyl-1-pyridinyl)-2H-benzo[b]pyran], for which the IC50 in the data set with rat aorta was 135 nM.

Take `CC(O[N+](=O)[O-])c1ccn(C2=CC(C)(C)Oc3ccc(C#N)cc32)c(=O)c1` (centres unmarked) [Compound No. 72, 6-cyano-2,2-dimethyl-4-{1,2-dihydro-2-oxo-4-(1-nitroxyethyl)-1-pyridinyl}-2H-benzo[b]pyran]: in the data set on rat aorta, the IC50 is 67.6 nM.

For `CC1(C)C=C(n2ccc(CCCO[N+](=O)[O-])cc2=O)c2cc(C#N)ccc2O1` [Compound No. 77, 6-cyano-2,2-dimethyl-4-{1,2-dihydro-2-oxo-4-(3-nitroxypropyl)-1-pyridinyl}-2H-benzo[b]pyran], the IC50 with rat aorta was 12.6 nM; with dog coronary artery (setting [2]), 2.14 nM; in the data set with dog coronary artery (setting [3]), 380 nM. In addition, the “spasmolytic effect” value in the data set with dog coronary artery is “also exhibited a spasmolytic effect on a contraction caused by 80 mM KCl, though their potencies are lower than those against the contraction caused by 20 mM KCl”.

As for `CC1(C)C=C(n2ccc(CCCCO[N+](=O)[O-])cc2=O)c2cc(C#N)ccc2O1` [Compound No. 81, 6-cyano-2,2-dimethyl-4-{1,2-dihydro-2-oxo-4-(4-nitroxybutyl)-1-pyridinyl}-2H-benzo[b]pyran], the IC50 with rat aorta was 39.8 nM; with dog coronary artery (setting [2]) it was 0.0316 nM; in the data set with dog coronary artery (setting [3]), 229 nM. For the same compound, the “spasmolytic effect” value with dog coronary artery was “also exhibited a spasmolytic effect on a contraction caused by 80 mM KCl, though their potencies are lower than those against the contraction caused by 20 mM KCl”.

Turning to `CC1(C)C=C(n2ccc(C(CCO[N+](=O)[O-])O[N+](=O)[O-])cc2=O)c2cc(C#N)ccc2O1` (centres unmarked) [Compound No. 91, 6-cyano-2,2-dimethyl-4-{1,2-dihydro-2-oxo-4-(1,3-dinitroxypropyl)-1-pyridinyl}-2H-benzo[b]pyran], in the data set with rat aorta, the IC50 was 102 nM. Same read-out and setting: under `CC1(C)C=C(n2ccc(CO[N+](=O)[O-])cc2=O)c2cc(C(F)(F)F)ccc2O1` [Compound No. 105, 6-trifluoromethyl-2,2-dimethyl-4-(1,2-dihydro-2-oxo-4-nitroxymethyl-1-pyridinyl)-2H-benzo[b]pyran] stands 5.89 nM; under `CC1(C)C=C(n2cccc(CO)c2=O)c2cc(C#N)ccc2O1` [Compound No. 160, 6-cyano-2,2-dimethyl-4-(1,2-dihydro-2-oxo-3-hydroxymethyl-1-pyridinyl)-2H-benzo[b]pyran], 813 nM; under `CC1(C)C=C(n2ccc(CO)cc2=O)c2cc(C#N)ccc2O1` [Compound No. 161, 6-cyano-2,2-dimethyl-4-(1,2-dihydro-2-oxo-4-hydroxymethyl-1-pyridinyl)-2H-benzo[b]pyran], 525 nM. Same read-out and setting: under `CC1(C)C=C(n2cc(CO)ccc2=O)c2cc(C#N)ccc2O1` [Compound No. 162, 6-cyano-2,2-dimethyl-4-(1,2-dihydro-2-oxo-5-hydroxymethyl-1-pyridinyl)-2H-benzo[b]pyran] stands 138 nM.

Take `C=Cc1ccn(C2=CC(C)(C)Oc3ccc(C#N)cc32)c(=O)c1` [Compound No. 190, 6-cyano-2,2-dimethyl-4-(1,2-dihydro-2-oxo-4-vinyl-1-pyridinyl)-2H-benzo[b]pyran]: the IC50 in the data set on rat aorta is 60.3 nM. For the compound `CC1(C)C=C(n2ccc(C=O)cc2=O)c2cc(C#N)ccc2O1` [Compound No. 191, 6-cyano-2,2-dimethyl-4-(1,2-dihydro-2-oxo-4-formyl-1-pyridinyl)-2H-benzo[b]pyran], in the data set with rat aorta, the IC50 was 447 nM. Same read-out and setting: under `CC1(C)C=C(n2ccc(CCCO)cc2=O)c2cc(C#N)ccc2O1` [Compound No. 192, 6-cyano-2,2-dimethyl-4-(1,2-dihydro-2-oxo-4-(3-hydroxypropyl)-1-pyridinyl}-2H-benzo[b]pyran] stands 1120 nM; under `CC1(C)C=C(n2ccc(CCCCO)cc2=O)c2cc(C#N)ccc2O1` [Compound No. 193, 6-cyano-2,2-dimethyl-4-{1,2-dihydro-2-oxo-4-(4-hydroxybutyl)-1-pyridinyl}-2H-benzo[b]pyran], 1350 nM.
